Active and inactive are the calls of the source. The calls are words filed in the database; no cut-off is given here.
Key:
[1] = Inhibition of Dengue virus 3 NS5 2'-O-MTase activity assessed as reduction in [3H]AdoMet transfer to 7MeGpppAC4 capped RNA substrate after 30 mins by microbeta liquid scintillation counting method; design: species or system dengue virus type 3
dengue virus type 3 = test: Binding affinity to Dengue virus 3 NS5 methyl transferase domain by thermal shift assay
[2] = Inhibition of Dengue virus 3 NS5 N7-MTase activity assessed as reduction in [3H]AdoMet transfer to GpppA2'OMe-RNA74 substrate after 30 mins by microbeta liquid scintillation counting method; design: species or system dengue virus type 3
[3] = Inhibition of West Nile virus Uganda strain B956 NS5 2'-O-MTase activity assessed as reduction in [3H]AdoMet transfer to 7MeGpppAC4 capped RNA substrate after 30 mins by microbeta liquid scintillation counting method
[4] = Cytotoxicity against African green monkey Vero E6 cells up to 100 uM; assay type: toxicity, cell-based; settings: chlorocebus sabaeus

Row | SMILES | IC50 [1] | Activity (dengue virus type 3) | IC50 [2] | IC50 [3] | Activity [4]
1 | Cc1ccc(C(=O)O)c(N)c1 | 2800 µM | Active |  |  | 
2 | Cc1cc(N)c(N)cc1Cl | 9300 µM | Active |  |  | 
3 | Nc1cc(Cl)ccc1NC(=O)Nc1cccc(S(=O)(=O)Nc2ccc(C(=O)O)cc2)c1 | 452 µM |  | > 1000 µM | 182 µM | 
4 | Nc1cc(C(F)(F)F)ccc1NC(=O)Nc1ccc(S(=O)(=O)Nc2ccc(C(=O)O)cc2)cc1 | 110 µM |  | 742 µM | 71 µM | Non-Toxic
5 | Nc1cc(Cl)ccc1NC(=O)Nc1ccc(S(=O)(=O)Oc2ccc(C(=O)O)cc2)cc1 | 368 µM |  | > 1000 µM | 190 µM | 
6 | Nc1cc(Cl)ccc1NC(=O)Nc1ccc(S(=O)(=O)Nc2ccc(C(=O)O)cc2)cc1 | 435 µM |  | > 1000 µM | 299 µM | 
7 | Nc1cc(C(F)(F)F)ccc1NC(=O)Nc1cccc(S(=O)(=O)Nc2ccc(C(=O)O)cc2)c1 | 91 µM |  | 1120 µM | 51 µM | Non-Toxic
8 | Nc1cc(Cl)ccc1NC(=O)Nc1cccc(S(=O)(=O)Oc2ccc(C(=O)O)cc2)c1 | 369 µM |  | > 1000 µM | 120 µM | 
9 | Nc1ccc(C(F)(F)F)cc1N | 9000 µM | Active |  |  | 
